Source: the NIST ThermoML archive (doi:10.1016/j.jct.2011.08.016)
Numbers after ± are expanded uncertainties.

Experiment: xn = mol fraction of the nth substance listed
Details: Liquid, Vibrating tube method

CCCCCCCCCC [decane] + CCCCCCC
Details	mass density [kg/m3]
343.11 K, 10000 kPa, x2 = 0.2594	691.9 ± 0.46
343.11 K, 10000 kPa, x2 = 0.952	656.24 ± 0.49
343.11 K, 11000 kPa, x2 = 0.2594	692.89 ± 0.47
343.11 K, 11000 kPa, x2 = 0.952	657.38 ± 0.5
343.11 K, 12000 kPa, x2 = 0.2594	693.86 ± 0.47
343.11 K, 12000 kPa, x2 = 0.952	658.49 ± 0.51
343.11 K, 13000 kPa, x2 = 0.2594	694.82 ± 0.48
343.11 K, 13000 kPa, x2 = 0.952	659.59 ± 0.51
343.11 K, 14000 kPa, x2 = 0.2594	695.76 ± 0.49
343.11 K, 14000 kPa, x2 = 0.952	660.67 ± 0.52
343.11 K, 15000 kPa, x2 = 0.2594	696.69 ± 0.49
343.11 K, 15000 kPa, x2 = 0.952	661.74 ± 0.53
343.11 K, 16000 kPa, x2 = 0.2594	697.6 ± 0.5
343.11 K, 16000 kPa, x2 = 0.952	662.78 ± 0.54
343.11 K, 17000 kPa, x2 = 0.2594	698.5 ± 0.51
343.11 K, 17000 kPa, x2 = 0.952	663.81 ± 0.54
343.11 K, 18000 kPa, x2 = 0.2594	699.38 ± 0.51
343.11 K, 18000 kPa, x2 = 0.952	664.84 ± 0.55
343.11 K, 19000 kPa, x2 = 0.2594	700.22 ± 0.52
343.11 K, 19000 kPa, x2 = 0.952	665.84 ± 0.56
343.11 K, 20000 kPa, x2 = 0.2594	701.09 ± 0.53
343.11 K, 20000 kPa, x2 = 0.952	666.82 ± 0.57
343.11 K, 21000 kPa, x2 = 0.2594	701.92 ± 0.53
343.11 K, 21000 kPa, x2 = 0.952	667.78 ± 0.58
343.11 K, 22000 kPa, x2 = 0.2594	702.73 ± 0.54
343.11 K, 22000 kPa, x2 = 0.952	668.7 ± 0.58
343.11 K, 23000 kPa, x2 = 0.2594	703.51 ± 0.55
343.11 K, 23000 kPa, x2 = 0.952	669.62 ± 0.59
343.11 K, 24000 kPa, x2 = 0.2594	704.28 ± 0.55
343.11 K, 24000 kPa, x2 = 0.952	670.52 ± 0.6
343.11 K, 25000 kPa, x2 = 0.2594	705.05 ± 0.56
343.11 K, 25000 kPa, x2 = 0.952	671.4 ± 0.61
353.06 K, 1000 kPa, x2 = 0.0531	682.62 ± 0.42
353.06 K, 2000 kPa, x2 = 0.0531	683.77 ± 0.42
353.06 K, 3000 kPa, x2 = 0.0531	684.88 ± 0.42
353.06 K, 4000 kPa, x2 = 0.0531	685.98 ± 0.43
353.06 K, 5000 kPa, x2 = 0.0531	687.07 ± 0.43
353.06 K, 6000 kPa, x2 = 0.0531	688.13 ± 0.44
353.06 K, 7000 kPa, x2 = 0.0531	689.17 ± 0.44
353.06 K, 8000 kPa, x2 = 0.0531	690.21 ± 0.45
353.06 K, 9000 kPa, x2 = 0.0531	691.24 ± 0.45
353.06 K, 10000 kPa, x2 = 0.0531	692.24 ± 0.46
353.06 K, 11000 kPa, x2 = 0.0531	693.24 ± 0.47
353.06 K, 12000 kPa, x2 = 0.0531	694.22 ± 0.47
353.06 K, 13000 kPa, x2 = 0.0531	695.18 ± 0.48
353.06 K, 14000 kPa, x2 = 0.0531	696.13 ± 0.48
353.06 K, 15000 kPa, x2 = 0.0531	697.07 ± 0.49
353.06 K, 16000 kPa, x2 = 0.0531	698 ± 0.5
353.06 K, 17000 kPa, x2 = 0.0531	698.9 ± 0.5
353.06 K, 18000 kPa, x2 = 0.0531	699.8 ± 0.51
353.06 K, 19000 kPa, x2 = 0.0531	700.69 ± 0.51
353.06 K, 20000 kPa, x2 = 0.0531	701.57 ± 0.52
353.06 K, 21000 kPa, x2 = 0.0531	702.43 ± 0.53
353.06 K, 22000 kPa, x2 = 0.0531	703.3 ± 0.53
353.06 K, 23000 kPa, x2 = 0.0531	704.13 ± 0.54
353.06 K, 24000 kPa, x2 = 0.0531	704.96 ± 0.55
353.06 K, 25000 kPa, x2 = 0.0531	705.78 ± 0.55
353.08 K, 1000 kPa, x2 = 0.5219	662.57 ± 0.43
353.08 K, 1000 kPa, x2 = 0.777	647.84 ± 0.43
353.08 K, 2000 kPa, x2 = 0.5219	663.78 ± 0.43
353.08 K, 2000 kPa, x2 = 0.777	649.19 ± 0.44
353.08 K, 3000 kPa, x2 = 0.5219	664.95 ± 0.43
353.08 K, 3000 kPa, x2 = 0.777	650.47 ± 0.44
353.08 K, 4000 kPa, x2 = 0.5219	666.13 ± 0.44
353.08 K, 4000 kPa, x2 = 0.777	651.73 ± 0.45
353.08 K, 5000 kPa, x2 = 0.5219	667.28 ± 0.45
353.08 K, 5000 kPa, x2 = 0.777	653.01 ± 0.45
353.08 K, 6000 kPa, x2 = 0.5219	668.44 ± 0.45
353.08 K, 6000 kPa, x2 = 0.777	654.25 ± 0.46
353.08 K, 7000 kPa, x2 = 0.5219	669.57 ± 0.46
353.08 K, 7000 kPa, x2 = 0.777	655.46 ± 0.47
353.08 K, 8000 kPa, x2 = 0.5219	670.7 ± 0.46
353.08 K, 8000 kPa, x2 = 0.777	656.67 ± 0.47
353.08 K, 9000 kPa, x2 = 0.5219	671.82 ± 0.47
353.08 K, 9000 kPa, x2 = 0.777	657.88 ± 0.48
353.08 K, 10000 kPa, x2 = 0.5219	672.93 ± 0.48
353.08 K, 10000 kPa, x2 = 0.777	659.06 ± 0.49
353.08 K, 11000 kPa, x2 = 0.5219	674.03 ± 0.48
353.08 K, 11000 kPa, x2 = 0.777	660.22 ± 0.49
353.08 K, 12000 kPa, x2 = 0.5219	675.1 ± 0.49
353.08 K, 12000 kPa, x2 = 0.777	661.36 ± 0.5
353.08 K, 13000 kPa, x2 = 0.5219	676.17 ± 0.49
353.08 K, 13000 kPa, x2 = 0.777	662.49 ± 0.51
353.08 K, 14000 kPa, x2 = 0.5219	677.22 ± 0.5
353.08 K, 14000 kPa, x2 = 0.777	663.61 ± 0.51
353.08 K, 15000 kPa, x2 = 0.5219	678.26 ± 0.51
353.08 K, 15000 kPa, x2 = 0.777	664.7 ± 0.52
353.08 K, 16000 kPa, x2 = 0.5219	679.28 ± 0.52
353.08 K, 16000 kPa, x2 = 0.777	665.77 ± 0.53
353.08 K, 17000 kPa, x2 = 0.5219	680.26 ± 0.52
353.08 K, 17000 kPa, x2 = 0.777	666.82 ± 0.54
353.08 K, 18000 kPa, x2 = 0.5219	681.28 ± 0.53
353.08 K, 18000 kPa, x2 = 0.777	667.86 ± 0.54
353.08 K, 19000 kPa, x2 = 0.5219	682.2 ± 0.54
